Measured values as given in publication PMC8315922, “In Vitro Identification and In Vivo Confirmation of Inhibitors for Sweet Potato Chlorotic Stunt Virus RNA Silencing Suppressor, a Viral RNase III” (Journal of Virology, 2021).
Where two headings read alike, the source gives them in different places.

How the values were obtained:
[1] = target: CSR3 (RNase III of SPCSV) (Sweet potato chlorotic stunt virus, UniProt Q8JJW8); experiment: Kinetic-based FRET dose-response assay (IC50, DSS); format: biochemical; set-up: DSS / DSS Comm 1 / DSS FIMM1 / DSS FIMM 2: scale not given here; details: for DSS Comm 1 / DSS FIMM1 / DSS FIMM 2: drug sensitivity score; for DSS Comm 1: repeat Comm 1; for DSS FIMM1: repeat FIMM 1; for DSS FIMM 2: repeat FIMM 2
Description: A dose-response assay with six concentrations (1.25 nM to 50 μM) was carried out in three independent experiments, which included two tests with the 112 selected FIMM compounds (i.e., compounds prepared by the HTB-FIMM) and one test using the newly ordered commercial compounds (99 of the 112 compounds, i.e., compounds prepared by a second supplier). A dose-response curve was generated for each compound based on PI values as a function of the concentration.
The HTS assay was designed based on FRET using a 22-bp siRNA (forward sequence, […]; reverse sequence, […]) with a 2-nucleotide (nt) 3′ overhang labeled with the fluorescent dye 6-carboxyfluorescein (FAM) and a black hole quencher (BHQ1) on the sense strand (Metabion, Munich, Germany). Screening was initially carried out at one concentration (10 μM) in a 20-μl reaction buffer. […] All reaction mixtures contained 50 nM CSR3 and 375 nM labeled siRNA in 384-well black flat-bottom microplates (Corning, NY, USA) and were prepared using a BioTek MultiFlo FX dispenser with single-channel random access dispenser cassettes (BioTek, Winooski, VT, USA). The plates were read with a PHERAstar FS reader (BMG Labtech, Ortenberg, Germany).
(§1) For HTS, the activity of CSR3 was calculated by measuring the change in fluorescence as a function of the reaction time using MARS Data Analysis software (BMG Labtech). To evaluate the CSR3 inhibition efficiency of individual compounds, the PI of each compound was calculated using the slope values for the sample, positive control, and negative control according to the following equation: PI = 100 × [1 − (sample − positive)/(negative − positive)]%. IC50 and DSS values were calculated using concentration-specific PI values according to a previous study ([31]). Relative gene expression was calculated using the classical 2^−ΔΔ^CT method ([63]).

CSR3 [2] = target: T1, CSR3 (Sweet potato chlorotic stunt virus, UniProt Q8JJW8); experiment: Binding affinity assay using MST; details: for Comments: MST behaviour of compound (V-shape response, fluorescence quenching, interference, aggregator); for Kd: MST binding affinity to CSR3; for Kd / Binding (Yes/No) / Response Amplitude: Table S4; for Binding (Yes/No): MST binding call; for Response Amplitude: MST response amplitude
T1 sequence (Q8JJW8 1-228): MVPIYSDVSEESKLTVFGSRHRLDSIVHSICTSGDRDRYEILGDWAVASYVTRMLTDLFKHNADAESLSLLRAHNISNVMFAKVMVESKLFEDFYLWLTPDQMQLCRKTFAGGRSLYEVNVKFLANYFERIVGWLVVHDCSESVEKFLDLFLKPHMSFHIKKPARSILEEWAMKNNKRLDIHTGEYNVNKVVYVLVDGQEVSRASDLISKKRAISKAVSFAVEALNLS
Description: (§2) Binding affinity assays were first carried out with the 99 commercial compounds using the MST method.
The labeled-protein solution containing 500 nM proteins and 40 nM dye was prepared in PBS buffer with 2% dimethyl sulfoxide (DMSO) for the assay. The 12 concentrations for each compound were obtained by 2-fold serial dilutions (0.2 μM to 400 μM). […] Two independent experiments were carried out in premium coated capillaries (NanoTemper, Munich, Germany) using a Monolith NT.Automated instrument (NanoTemper) with the power set at high (80%), the light-emitting diode (LED) power (pico red) set at 5%, and the on-time set at 20 s. The dissociation constant (Kd) was determined using the MO.Affinity Analysis program (NanoTemper).

SPFMV = experiment: Virus accumulation (RT-qPCR of coat protein RNA) in coinfected sweetpotato plants grown in culture medium: SPFMV; format: in vivo, Sweet potato feathery mottle virus; details: for SPFMV_FC (fold change of viral accumulation): 50 μM in culture medium, 28 days, relative to DMSO control
Description: (§3) Since tests in culture medium consume smaller amounts of compounds and can be carried out under relatively controlled conditions, sweetpotato plants coinfected with SPCSV and SPFMV were grown in medium supplemented with one of the 30 inhibitor candidates at a concentration of 50 μM. Their effects on plant growth were monitored by imaging the plants once a week. […] In addition, virus accumulation was quantified by measuring the relative abundance of the transcripts encoding viral coat proteins using RT-qPCR ([32]). The effect of individual compounds on virus accumulation was estimated by comparing treated and control plants.
(§4) Sweetpotato plants cultivar 'Huachano' (accession CIP420065) were side-graft inoculated with both SPFMV (East African strain isolate Nam1) and SPCSV-Ug (East African serotype 2) as described previously ([62]). Plantlets were propagated by taking single-node stems grown in a plant culture medium ([33]). Next, plantlets with newly formed roots were transferred to glass tubes (18 by 150 mm) containing 10 ml of medium supplemented with either 50 μM compound (diluted in DMSO; final DMSO concentration, 0.1%) or only 0.1% DMSO as a control. For plant experiments in soil, plantlets were transferred to pots (6 by 6 by 10 cm) filled with a mixture of sand, humus, and washed soil. After 1 week, plants were treated by foliar spraying using either individual compounds at a single concentration (10 μM) (treatment) or water (control/mock) twice a week for 1 month. All plants were grown at 22°C with 60% humidity and a 16-h light/8-h dark photoperiod for 28 days in culture medium and for 41 days in soil. The Finnish National Plant Phenotyping Infrastructure (NaPPI) was used to monitor plant viral disease symptoms as described in our previous study ([33]). Four compounds were tested with the phenotyping platform in two independent batches, each of which included five biological replicates.
(§5) Leaf samples were collected from plants grown in culture medium or soil for 28 or 41 days, respectively, and frozen in liquid nitrogen. Total RNA was extracted using the Spectrum plant total RNA kit (Sigma-Aldrich). First-strand cDNA was synthesized using the Transcriptor first-strand cDNA synthesis kit (Roche, Basel, Switzerland). […] All RT-qPCR experiments were conducted in triplicate on three and five biological replicates from plants grown in culture medium and soil, respectively. The primer list can be found in our previous study ([33]).
as §1

SPCSV = experiment: Virus accumulation (RT-qPCR of coat protein RNA) in coinfected sweetpotato plants grown in culture medium: SPCSV; format: in vivo, Sweet potato chlorotic stunt virus; details: for SPCSV_FC (fold change of viral accumulation): 50 μM in culture medium, 28 days, relative to DMSO control
Description: as §3, §4, §5, §1

CSR3 [3] = target: T1, CSR3; experiment: Binding affinity assay using SPR; details: SPR dose-response 3 μM to 200 μM, 25°C, numbers match M (cf. Fig 5A)
Description: as §2
CSR3 was purified as described above and stored in PBS buffer. SPR was performed on a BiacoreT100 instrument (GE Healthcare) using a sensor S CM5 chip (GE Healthcare). CSR3 (10 ng/μl) was immobilized using the standard amine-coupling method according to the manufacturer’s instructions with immobilization buffer (10 mM sodium acetate [pH 4]); the final response unit (RU) value was 11,459. Compounds at a single concentration (100 μM) or consisting of 2-fold serial dilutions (3 μM to 200 μM) were flowed over the sensor surface using PBS buffer with 0.01 M HEPES, 0.05% surfactant P20, and 2% DMSO. […] To eliminate bulk interference by DMSO, a solvent correction consisting of DMSO at concentrations ranging from 1.5% to 2.8% was carried out for every 30 samples. Steady-state affinity (KD) values were determined using BiacoreT100 Evaluation software, v.2.04 (GE Healthcare).

sweetpotato plants = details: 50 μM in culture medium
[4] = tested on: human enzymes or bacterial proteins; set-up: method as in earlier work; details: ref PubChem https://pubchem.ncbi.nlm.nih.gov/compound/7114450#section=Biological-Test-Results; cited from earlier work
[5] = kinetic-based HTS, Fig 5A summary
[6] = read-out: IC50 Comm 1, repeat Comm 1 (commercial compounds), 1.25 nM to 50 μM, unit inferred, numbers match nM
[7] = repeat FIMM 2 (FIMM library compounds), 1.25 nM to 50 μM, unit inferred, numbers match nM, read-out: IC50 FIMM 2
[8] = plants in culture medium, 50 μM
[9] = repeat Comm 1 (commercial compounds), 1.25 nM to 50 μM, unit inferred, numbers match nM, read-out: IC50 Comm 1
[10] = repeat FIMM 1 (FIMM library compounds), 1.25 nM to 50 μM, unit inferred, numbers match nM (cf. Fig 5A), read-out: IC50 FIMM1

SMILES	DSS Comm 1 [1]	DSS FIMM1 [1]	DSS FIMM 2 [1]	DSS [1, 5]	IC50 [1, 5] [nM]	IC50 [1, 6] [nM]	IC50 [1, 7] [nM]	Comments (CSR3 [2])	Binding (Yes/No) (CSR3 [2])	Response Amplitude (CSR3 [2])	SPFMV accumulation reduced (SPFMV; [8]) [fold]	SPCSV accumulation reduced (SPCSV; [8]) [fold]	SPFMV_FC (fold change of viral accumulation) (SPFMV)	SPCSV_FC (fold change of viral accumulation) (SPCSV)	Toxicity (sweetpotato plants)	IC50 [1, 9] [nM]	IC50 [1, 10] [nM]	also measured
CN1CCc2cccc3c2[C@H]1Cc1ccc(O)c(O)c1-3 [FIMM000096, reference compound]	12.7	12.7	12.8	12.7	~2950	2950	2880	Fluorescence quenching	Yes	11808	~2	~4						Kd (CSR3 [2]): 690 nM
O=C(O)c1ccc2c(c1)C1C=CCC1C(c1ccc(F)cc1)N2 (stereo not drawn) [FIMM051696]	11.1	12.4	10.8	12.4	~2820	3610			No	0.517	~4	~4	0.3032	0.2923	no			IC50 ([1]; read-out: IC50 FIMM1, repeat FIMM 1 (FIMM library compounds), 1.25 nM to 50 μM, unit inferred, numbers match nM (cf. Fig 5A)): 2820 nM; IC50 ([1]; read-out: IC50 FIMM 2, repeat FIMM 2 (FIMM library compounds), 1.25 nM to 50 μM, unit inferred, numbers match nM): 4000 nM; Kd (CSR3 [3]; unit inferred, read-out: Steady State Affinity): 3650 nM; viral titer SPFMV (log2 fold change relative to controls) (SPFMV; [8]): −1.72; viral titer SPCSV (log2 fold change relative to controls) (SPCSV; [8]): −1.77; activity in inhibitor screens for human enzymes or bacterial proteins [4]: inactive
CN1C(=O)C(=CNc2ccc(F)cc2)C(=O)N(C)C1=O [FIMM059523]		0	2.3				21000											
O=S(=O)(O)c1cccc2cc(O)ccc12 [FIMM072577]	20.7	18.3	22.1				295	Interference	No	0			1.005	0.7975	no	391	699	Steady State Affinity (CSR3 [3]; unit not given): non binder
CCn1c(S)nnc1CCNC(=O)c1cccs1 [FIMM099662]	6	11.7	10.2				3810		Yes	21			0.9387	0.5483	no	11400	3070	Kd (CSR3 [2]; read-out: Kd): 1780 nM
CC(C)(C)C1CCc2c(sc(NC(=O)C3CC=CCC3C(=O)O)c2C(N)=O)C1 (stereo not drawn) [FIMM104970]	2.4	0	2.1						No	2.23						3620		
